Source: PubChem BioAssay AID1259407 (Chemical Carcinogenesis Research Information System (CCRIS), 2018)
Active and inactive are the calls of the source. The rule behind the calls is not given here.

System: CCRIS mutagenicity, Ames/micronucleus/aberration tests
Assay: CCRIS mutagenicity studies
[1] = Test System: AMES SALMONELLA TYPHIMURIUM, Strain/Indicator: TA98, Metabolic Activation: NONE, Method: STANDARD PLATE
[2] = Test System: AMES SALMONELLA TYPHIMURIUM, Strain/Indicator: TA98, Metabolic Activation: RAT, LIVER, S-9, AROCLOR 1254, Method: STANDARD PLATE
[3] = Test System: AMES SALMONELLA TYPHIMURIUM, Strain/Indicator: TA100, Metabolic Activation: NONE, Method: STANDARD PLATE
[4] = Test System: AMES SALMONELLA TYPHIMURIUM, Strain/Indicator: TA100, Metabolic Activation: RAT, LIVER, S-9, AROCLOR 1254, Method: STANDARD PLATE
[5] = Test System: AMES SALMONELLA TYPHIMURIUM, Strain/Indicator: TA1535, Metabolic Activation: NONE, Method: STANDARD PLATE
[6] = Test System: AMES SALMONELLA TYPHIMURIUM, Strain/Indicator: TA1535, Metabolic Activation: RAT, LIVER, S-9, AROCLOR 1254, Method: STANDARD PLATE
[7] = Test System: AMES SALMONELLA TYPHIMURIUM, Strain/Indicator: TA1537, Metabolic Activation: NONE, Method: STANDARD PLATE
[8] = Test System: AMES SALMONELLA TYPHIMURIUM, Strain/Indicator: TA1537, Metabolic Activation: RAT, LIVER, S-9, AROCLOR 1254, Method: STANDARD PLATE
[9] = Test System: AMES SALMONELLA TYPHIMURIUM, Strain/Indicator: TA1538, Metabolic Activation: NONE, Method: STANDARD PLATE
[10] = Test System: AMES SALMONELLA TYPHIMURIUM, Strain/Indicator: TA1538, Metabolic Activation: RAT, LIVER, S-9, AROCLOR 1254, Method: STANDARD PLATE
[11] = Test System: E. COLI, Strain/Indicator: WP2 UVRA, Metabolic Activation: NONE, Method: STANDARD PLATE
[12] = Test System: AMES SALMONELLA TYPHIMURIUM, Strain/Indicator: TA100, Metabolic Activation: NONE, Method: PREINCUBATION
[13] = Test System: AMES SALMONELLA TYPHIMURIUM, Strain/Indicator: TA100, Metabolic Activation: S-9, Method: PREINCUBATION

In the case of `O=C(Cl)OCC1c2ccccc2-c2ccccc21`, the mutagenic call [1] was “inactive; negative”, the mutagenic call [2] was “inactive; negative” and the mutagenic call [3] was “inactive; negative”. The mutagenic call [4] was “inactive; negative”, the mutagenic call [5] was “inactive; negative” and the mutagenic call [6] was “inactive; negative”. The mutagenic call [7] was “inactive; negative” and the mutagenic call [8] was “active; positive”.
For `Oc1ccc2ccc3c4c(ccc3c2c1)[C@@H](O)[C@H](O)C=C4`, the mutagenic call [1] was “inactive; negative”, the mutagenic call [2] was “active; positive” and the mutagenic call [3] was “inactive; negative”. For the same compound, the mutagenic call [4] was “active; positive”.
For `COc1ccc(O)c2c(=O)c3c(OC)cc4c(c3oc12)C1CCOC1O4` (stereo not drawn), the mutagenic call (Test System: AMES SALMONELLA TYPHIMURIUM, Strain/Indicator: TA98, Metabolic Activation: RAT, LIVER, S-9, PHENOBARBITAL, Method: STANDARD PLATE) was “inactive; negative” and the mutagenic call (Test System: AMES SALMONELLA TYPHIMURIUM, Strain/Indicator: TA100, Metabolic Activation: RAT, LIVER, S-9, PHENOBARBITAL, Method: STANDARD PLATE) was “inactive; negative”.
For `FC(F)(F)c1ccc(Cl)cc1`, the mutagenic call (Test System: AMES SALMONELLA TYPHIMURIUM, Strain/Indicator: TA98, Metabolic Activation: HAMSTER, LIVER, S-9, AROCLOR 1254, Method: STANDARD PLATE) was “inactive; negative”, the mutagenic call [1] was “inactive; negative” and the mutagenic call [2] was “inactive; negative”. For the same compound, the mutagenic call (Test System: AMES SALMONELLA TYPHIMURIUM, Strain/Indicator: TA100, Metabolic Activation: HAMSTER, LIVER, S-9, AROCLOR 1254, Method: STANDARD PLATE) was “inactive; negative”, the mutagenic call [3] was “inactive; negative” and the mutagenic call [4] was “inactive; negative”. The mutagenic call (Test System: AMES SALMONELLA TYPHIMURIUM, Strain/Indicator: TA1535, Metabolic Activation: HAMSTER, LIVER, S-9, AROCLOR 1254, Method: STANDARD PLATE) was “inactive; negative”, the mutagenic call [5] was “inactive; negative” and the mutagenic call [6] was “inactive; negative”. The mutagenic call (Test System: AMES SALMONELLA TYPHIMURIUM, Strain/Indicator: TA1537, Metabolic Activation: HAMSTER, LIVER, S-9, AROCLOR 1254, Method: STANDARD PLATE) was “inactive; negative”, the mutagenic call [7] was “inactive; negative” and the mutagenic call [8] was “inactive; negative”. The mutagenic call (Test System: AMES SALMONELLA TYPHIMURIUM, Strain/Indicator: TA1538, Metabolic Activation: HAMSTER, LIVER, S-9, AROCLOR 1254, Method: STANDARD PLATE) was “inactive; negative”, the mutagenic call [9] was “inactive; negative” and the mutagenic call [10] was “inactive; negative”. For the same compound, the mutagenic call (Test System: MOUSE LYMPHOMA, Strain/Indicator: L5178Y (TK+/TK-), Metabolic Activation: NONE, Method: SUSPENSION/PLATE) was “inactive; negative. reevaluation of results: negative” and the mutagenic call (Test System: MOUSE LYMPHOMA, Strain/Indicator: L5178Y (TK+/TK-), Metabolic Activation: RAT, LIVER, S-9, AROCLOR 1254, Method: SUSPENSION/PLATE) was “inactive; negative. reevaluation of results: equivocal”.
With `O=C1OC(CN2CCOCC2)CN1/N=C/c1ccc([N+](=O)[O-])o1` (stereo not drawn) the mutagenic call (Test System: E. COLI, Strain/Indicator: WP2, Metabolic Activation: NONE, Method: SPOT) was “active; positive”, the mutagenic call (Test System: E. COLI, Strain/Indicator: WP2 UVRA, Metabolic Activation: NONE, Method: SPOT) was “active; positive” and the mutagenic call [11] was “active; positive”.
In the case of `CCN1CCN(C(=O)N[C@@H](C(=O)N[C@@H]2C(=O)N3[C@@H]2SC(C)(C)[C@@H]3C(=O)O)c2ccccc2)C(=O)C1=O`, the mutagenic call (Test System: AMES SALMONELLA TYPHIMURIUM, Strain/Indicator: TA98, Metabolic Activation: MOUSE, IN VIVO, Method: HOST-MEDIATED) was “inactive; negative”, the mutagenic call (Test System: AMES SALMONELLA TYPHIMURIUM, Strain/Indicator: TA98, Metabolic Activation: NONE, Method: PREINCUBATION) was “inactive; negative” and the mutagenic call [1] was “inactive; negative”. For the same compound, the mutagenic call [2] was “inactive; negative”, the mutagenic call (Test System: AMES SALMONELLA TYPHIMURIUM, Strain/Indicator: TA98, Metabolic Activation: S-9, Method: PREINCUBATION) was “inactive; negative” and the mutagenic call (Test System: AMES SALMONELLA TYPHIMURIUM, Strain/Indicator: TA100, Metabolic Activation: MOUSE, IN VIVO, Method: HOST-MEDIATED) was “inactive; negative”. The mutagenic call [12] was “inactive; negative”, the mutagenic call [3] was “inactive; negative” and the mutagenic call [4] was “inactive; negative”. For the same compound, the mutagenic call [13] was “inactive; negative”, the mutagenic call (Test System: AMES SALMONELLA TYPHIMURIUM, Strain/Indicator: TA1535, Metabolic Activation: MOUSE, IN VIVO, Method: HOST-MEDIATED) was “inactive; negative” and the mutagenic call (Test System: AMES SALMONELLA TYPHIMURIUM, Strain/Indicator: TA1535, Metabolic Activation: NONE, Method: PREINCUBATION) was “inactive; negative”. For the same compound, the mutagenic call [5] was “inactive; negative”, the mutagenic call [6] was “inactive; negative” and the mutagenic call (Test System: AMES SALMONELLA TYPHIMURIUM, Strain/Indicator: TA1535, Metabolic Activation: S-9, Method: PREINCUBATION) was “inactive; negative”. The mutagenic call (Test System: AMES SALMONELLA TYPHIMURIUM, Strain/Indicator: TA1537, Metabolic Activation: MOUSE, IN VIVO, Method: HOST-MEDIATED) was “inactive; negative”, the mutagenic call (Test System: AMES SALMONELLA TYPHIMURIUM, Strain/Indicator: TA1537, Metabolic Activation: NONE, Method: PREINCUBATION) was “inactive; negative” and the mutagenic call [7] was “inactive; negative”. The mutagenic call [8] was “inactive; negative”, the mutagenic call (Test System: AMES SALMONELLA TYPHIMURIUM, Strain/Indicator: TA1537, Metabolic Activation: S-9, Method: PREINCUBATION) was “inactive; negative” and the mutagenic call [9] was “inactive; negative”. The mutagenic call [10] was “inactive; negative”, the mutagenic call (Test System: E. COLI, Strain/Indicator: WP2 UVRA, Metabolic Activation: NONE, Method: PREINCUBATION) was “inactive; negative” and the mutagenic call [11] was “inactive; negative”. For the same compound, the mutagenic call (Test System: E. COLI, Strain/Indicator: WP2 UVRA, Metabolic Activation: RAT, LIVER, S-9, AROCLOR 1254, Method: STANDARD PLATE) was “inactive; negative” and the mutagenic call (Test System: E. COLI, Strain/Indicator: WP2 UVRA, Metabolic Activation: S-9, Method: PREINCUBATION) was “inactive; negative”.
`N#C/C(=C/C=C/c1ccccc1)c1ccc(F)cc1` was tested, and the mutagenic call (Test System: AMES SALMONELLA TYPHIMURIUM, Strain/Indicator: TA97A, Metabolic Activation: NONE, Method: STANDARD PLATE) was “active; positive” and the mutagenic call [3] was “inactive; negative”.
In the case of `NC(=O)Nc1cccc2cccnc12`, the mutagenic call [13] was “inactive; negative”.
With `OCC12OOC1(CO)c1ccccc1O2` (stereo not drawn) the mutagenic call [12] was “inactive; negative”.
In the case of `NNc1ccc(C(=O)O)cc1`, the mutagenic call (Test System: AMES SALMONELLA TYPHIMURIUM, Strain/Indicator: TA104, Metabolic Activation: MUSHROOM TYROSINASE, Method: PREINCUBATION) was “inactive; negative”, the mutagenic call (Test System: AMES SALMONELLA TYPHIMURIUM, Strain/Indicator: TA104, Metabolic Activation: NONE, Method: PREINCUBATION) was “inactive; negative” and the mutagenic call (Test System: AMES SALMONELLA TYPHIMURIUM, Strain/Indicator: TA104, Metabolic Activation: RAT, LIVER, CYTOSOL, AROCLOR 1254, NADPH, Method: PREINCUBATION) was “inactive; negative”.
For `CCN(CC)CCCNC(=O)C(=O)N/N=C/c1ccc([N+](=O)[O-])o1`, the mutagenic call [11] was “active; positive”.
In the case of `C=C(C)[C@@H]1CC=C(C=O)CC1`, the mutagenic call (Test System: AMES SALMONELLA TYPHIMURIUM, Strain/Indicator: TA97, Metabolic Activation: NONE, Method: PREINCUBATION) was “inactive; negative”, the mutagenic call (Test System: AMES SALMONELLA TYPHIMURIUM, Strain/Indicator: TA97, Metabolic Activation: RAT, LIVER, S-9, AROCLOR 1254, Method: PREINCUBATION) was “inactive; negative” and the mutagenic call (Test System: AMES SALMONELLA TYPHIMURIUM, Strain/Indicator: TA102, Metabolic Activation: NONE, Method: PREINCUBATION) was “inactive; negative”. The mutagenic call (Test System: AMES SALMONELLA TYPHIMURIUM, Strain/Indicator: TA102, Metabolic Activation: RAT, LIVER, S-9, AROCLOR 1254, Method: PREINCUBATION) was “inactive; negative”.
With `c1ccc([As+](c2ccccc2)(c2ccccc2)c2ccccc2)cc1` the mutagenic call (Test System: Mouse lymphoma, Strain/Indicator: L5178Y (TK+/TK-), Metabolic Activation: None, Method: Microwell) was “inactive; negative”.
